Reference: ChEMBL document CHEMBL4665881, “Pyrroformyl-containing 2,4-diaminopyrimidine derivatives as a new optimization strategy of ALK inhibitors combating mutations” (Bioorg Med Chem, 2020)

test system: KARPAS-299; assay: Antiproliferative activity against human Karpas299 cells assessed as reduction in cell viability incubated for 72 hrs by MTT assay; details: KARPAS-299, 72 h

IC50 | SMILES
105 nM | CCN(CC)C(=O)c1cccn1-c1ccc(Nc2ncc(Cl)c(Nc3ccccc3NS(C)(=O)=O)n2)c(OC)c1
2310 nM | CNC(=O)c1ccccc1Nc1nc(Nc2ccc(-n3cccc3C(=O)N3CCC(C)CC3)cc2OC)ncc1Cl
78 nM | COc1cc(-n2cccc2C(=O)N(C)C)ccc1Nc1ncc(Cl)c(Nc2ccccc2NS(C)(=O)=O)n1
870 nM | COc1cc(-n2cccc2C(=O)N2CCCC2)ccc1Nc1ncc(Cl)c(Nc2ccccc2NS(C)(=O)=O)n1
90 nM | CNC(=O)c1ccccc1Nc1nc(Nc2ccc(-n3cccc3C(=O)N3CCN(C)CC3)cc2OC)ncc1Cl
1370 nM | COc1cc(-n2cccc2C(=O)N2CCC(C)CC2)ccc1Nc1ncc(Cl)c(Nc2ccccc2NS(C)(=O)=O)n1
170 nM | CNC(=O)c1ccccc1Nc1nc(Nc2ccc(-n3cccc3C(=O)O)cc2OC)ncc1Cl
970 nM | COc1cc(-n2cccc2C(=O)N2CCC(O)CC2)ccc1Nc1ncc(Cl)c(Nc2ccccc2NS(C)(=O)=O)n1
430 nM | CNC(=O)c1ccccc1Nc1nc(Nc2ccc(-n3cccc3C(=O)N3CCN(CCO)CC3)cc2OC)ncc1Cl
1040 nM | COc1cc(-n2cccc2C(=O)N2CCCCC2)ccc1Nc1ncc(Cl)c(Nc2ccccc2NS(C)(=O)=O)n1
1410 nM | CCN1CCN(C(=O)c2cccn2-c2ccc(Nc3ncc(Cl)c(Nc4ccccc4NS(C)(=O)=O)n3)c(OC)c2)CC1
1140 nM | CNC(=O)c1ccccc1Nc1nc(Nc2ccc(-n3cccc3C(=O)N3CCSCC3)cc2OC)ncc1Cl
1070 nM | CNC(=O)c1ccccc1Nc1nc(Nc2ccc(-n3cccc3C(=O)N(C)C)cc2OC)ncc1Cl
790 nM | CNC(=O)c1ccccc1Nc1nc(Nc2ccc(-n3cccc3C(=O)NCCO)cc2OC)ncc1Cl
890 nM | CNC(=O)c1ccccc1Nc1nc(Nc2ccc(-n3cccc3C(=O)OC)cc2OC)ncc1Cl
1030 nM | CNC(=O)c1ccccc1Nc1nc(Nc2ccc(-n3cccc3C(=O)N3CCOCC3)cc2OC)ncc1Cl
970 nM | CNC(=O)c1ccccc1Nc1nc(Nc2ccc(-n3cccc3C(=O)N3CCC(O)CC3)cc2OC)ncc1Cl
45 nM | COc1cc(-n2cccc2C(=O)NCCO)ccc1Nc1ncc(Cl)c(Nc2ccccc2NS(C)(=O)=O)n1
640 nM | COc1cc(-n2cccc2C(=O)N2CCOCC2)ccc1Nc1ncc(Cl)c(Nc2ccccc2NS(C)(=O)=O)n1
930 nM | COc1cc(-n2cccc2C(=O)N2CCSCC2)ccc1Nc1ncc(Cl)c(Nc2ccccc2NS(C)(=O)=O)n1
790 nM | COC(=O)c1cccn1-c1ccc(Nc2ncc(Cl)c(Nc3ccccc3NS(C)(=O)=O)n2)c(OC)c1
72 nM | COc1cc(-n2cccc2C(=O)O)ccc1Nc1ncc(Cl)c(Nc2ccccc2NS(C)(=O)=O)n1
270 nM | CCN(CC)C(=O)c1cccn1-c1ccc(Nc2ncc(Cl)c(Nc3ccccc3C(=O)NC)n2)c(OC)c1
1250 nM | COc1cc(-n2cccc2C(=O)N2CCN(CCO)CC2)ccc1Nc1ncc(Cl)c(Nc2ccccc2NS(C)(=O)=O)n1
1610 nM | CNC(=O)c1ccccc1Nc1nc(Nc2ccc(-n3cccc3C(=O)N3CCCCC3)cc2OC)ncc1Cl
970 nM | COc1cc(-n2cccc2C(=O)N2CCN(C)CC2)ccc1Nc1ncc(Cl)c(Nc2ccccc2NS(C)(=O)=O)n1
840 nM | CNC(=O)c1ccccc1Nc1nc(Nc2ccc(-n3cccc3C(=O)N3CCCC3)cc2OC)ncc1Cl
940 nM | CCN1CCN(C(=O)c2cccn2-c2ccc(Nc3ncc(Cl)c(Nc4ccccc4C(=O)NC)n3)c(OC)c2)CC1
81 nM | COc1cc(-n2cccc2C(=O)N2CC(O)C2)ccc1Nc1ncc(Cl)c(Nc2ccccc2NS(C)(=O)=O)n1
740 nM | CNC(=O)c1ccccc1Nc1nc(Nc2ccc(-n3cccc3C(=O)N3CC(O)C3)cc2OC)ncc1Cl

biological target: ALK tyrosine kinase receptor (Homo sapiens, UniProt Q9UM73); assay: Inhibition of wild-type ALK (unknown origin) incubated for 1 hr; details: not given
Sequence (Q9UM73 whole entry): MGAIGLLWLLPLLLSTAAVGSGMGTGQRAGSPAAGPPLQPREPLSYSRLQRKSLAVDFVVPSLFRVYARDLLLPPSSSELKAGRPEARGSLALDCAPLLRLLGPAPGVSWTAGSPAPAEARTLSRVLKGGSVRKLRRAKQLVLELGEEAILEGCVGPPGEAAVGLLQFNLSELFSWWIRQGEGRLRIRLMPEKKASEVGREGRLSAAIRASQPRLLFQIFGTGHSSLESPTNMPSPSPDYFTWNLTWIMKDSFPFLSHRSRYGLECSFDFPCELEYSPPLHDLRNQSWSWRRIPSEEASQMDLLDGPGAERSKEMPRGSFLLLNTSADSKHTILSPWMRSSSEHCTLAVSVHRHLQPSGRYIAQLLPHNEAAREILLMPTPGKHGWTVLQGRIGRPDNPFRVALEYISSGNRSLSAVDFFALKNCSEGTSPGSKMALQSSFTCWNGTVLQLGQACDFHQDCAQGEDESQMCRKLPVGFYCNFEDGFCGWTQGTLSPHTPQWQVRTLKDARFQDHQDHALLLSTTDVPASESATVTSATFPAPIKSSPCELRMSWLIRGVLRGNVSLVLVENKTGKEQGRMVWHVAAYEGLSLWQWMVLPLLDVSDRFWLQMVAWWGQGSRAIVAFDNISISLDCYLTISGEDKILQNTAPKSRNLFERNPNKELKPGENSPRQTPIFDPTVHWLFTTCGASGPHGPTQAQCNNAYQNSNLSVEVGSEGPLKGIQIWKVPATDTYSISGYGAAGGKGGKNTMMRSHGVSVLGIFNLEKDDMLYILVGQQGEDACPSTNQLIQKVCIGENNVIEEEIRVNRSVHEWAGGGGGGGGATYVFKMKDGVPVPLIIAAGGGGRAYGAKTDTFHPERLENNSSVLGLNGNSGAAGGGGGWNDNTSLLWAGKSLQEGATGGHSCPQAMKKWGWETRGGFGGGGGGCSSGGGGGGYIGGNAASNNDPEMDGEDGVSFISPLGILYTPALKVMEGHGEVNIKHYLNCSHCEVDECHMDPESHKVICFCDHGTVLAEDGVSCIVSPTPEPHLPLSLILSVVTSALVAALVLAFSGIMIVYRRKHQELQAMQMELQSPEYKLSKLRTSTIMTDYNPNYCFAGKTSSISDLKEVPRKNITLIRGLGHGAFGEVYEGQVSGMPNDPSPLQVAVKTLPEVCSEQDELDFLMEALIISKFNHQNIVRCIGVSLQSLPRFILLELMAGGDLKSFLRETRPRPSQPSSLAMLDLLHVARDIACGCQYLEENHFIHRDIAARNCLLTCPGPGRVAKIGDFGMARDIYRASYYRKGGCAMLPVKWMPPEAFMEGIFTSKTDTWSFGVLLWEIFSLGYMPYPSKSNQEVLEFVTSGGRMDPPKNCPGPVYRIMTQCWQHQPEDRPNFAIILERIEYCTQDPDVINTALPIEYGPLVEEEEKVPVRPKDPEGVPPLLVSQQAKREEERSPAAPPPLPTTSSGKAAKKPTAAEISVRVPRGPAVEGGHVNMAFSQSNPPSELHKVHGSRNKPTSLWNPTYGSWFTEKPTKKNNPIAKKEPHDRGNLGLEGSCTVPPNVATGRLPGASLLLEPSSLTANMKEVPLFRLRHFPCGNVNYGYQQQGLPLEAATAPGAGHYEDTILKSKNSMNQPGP

IC50 | SMILES
8.5 nM | CCN1CCN(C(=O)c2cccn2-c2ccc(Nc3ncc(Cl)c(Nc4ccccc4NS(C)(=O)=O)n3)c(OC)c2)CC1
9.6 nM | CNC(=O)c1ccccc1Nc1nc(Nc2ccc(-n3cccc3C(=O)NCCO)cc2OC)ncc1Cl
1.9 nM | COc1cc(-n2cccc2C(=O)NCCO)ccc1Nc1ncc(Cl)c(Nc2ccccc2NS(C)(=O)=O)n1
4.5 nM | COc1cc(-n2cccc2C(=O)N2CCSCC2)ccc1Nc1ncc(Cl)c(Nc2ccccc2NS(C)(=O)=O)n1

biological target: ALK tyrosine kinase receptor (Homo sapiens, UniProt Q9UM73, L1196M); assay: Inhibition of ALK L1196M (unknown origin) incubated for 1 hr; details: not given
Sequence (Q9UM73 19-1620 L1196M limits assumed): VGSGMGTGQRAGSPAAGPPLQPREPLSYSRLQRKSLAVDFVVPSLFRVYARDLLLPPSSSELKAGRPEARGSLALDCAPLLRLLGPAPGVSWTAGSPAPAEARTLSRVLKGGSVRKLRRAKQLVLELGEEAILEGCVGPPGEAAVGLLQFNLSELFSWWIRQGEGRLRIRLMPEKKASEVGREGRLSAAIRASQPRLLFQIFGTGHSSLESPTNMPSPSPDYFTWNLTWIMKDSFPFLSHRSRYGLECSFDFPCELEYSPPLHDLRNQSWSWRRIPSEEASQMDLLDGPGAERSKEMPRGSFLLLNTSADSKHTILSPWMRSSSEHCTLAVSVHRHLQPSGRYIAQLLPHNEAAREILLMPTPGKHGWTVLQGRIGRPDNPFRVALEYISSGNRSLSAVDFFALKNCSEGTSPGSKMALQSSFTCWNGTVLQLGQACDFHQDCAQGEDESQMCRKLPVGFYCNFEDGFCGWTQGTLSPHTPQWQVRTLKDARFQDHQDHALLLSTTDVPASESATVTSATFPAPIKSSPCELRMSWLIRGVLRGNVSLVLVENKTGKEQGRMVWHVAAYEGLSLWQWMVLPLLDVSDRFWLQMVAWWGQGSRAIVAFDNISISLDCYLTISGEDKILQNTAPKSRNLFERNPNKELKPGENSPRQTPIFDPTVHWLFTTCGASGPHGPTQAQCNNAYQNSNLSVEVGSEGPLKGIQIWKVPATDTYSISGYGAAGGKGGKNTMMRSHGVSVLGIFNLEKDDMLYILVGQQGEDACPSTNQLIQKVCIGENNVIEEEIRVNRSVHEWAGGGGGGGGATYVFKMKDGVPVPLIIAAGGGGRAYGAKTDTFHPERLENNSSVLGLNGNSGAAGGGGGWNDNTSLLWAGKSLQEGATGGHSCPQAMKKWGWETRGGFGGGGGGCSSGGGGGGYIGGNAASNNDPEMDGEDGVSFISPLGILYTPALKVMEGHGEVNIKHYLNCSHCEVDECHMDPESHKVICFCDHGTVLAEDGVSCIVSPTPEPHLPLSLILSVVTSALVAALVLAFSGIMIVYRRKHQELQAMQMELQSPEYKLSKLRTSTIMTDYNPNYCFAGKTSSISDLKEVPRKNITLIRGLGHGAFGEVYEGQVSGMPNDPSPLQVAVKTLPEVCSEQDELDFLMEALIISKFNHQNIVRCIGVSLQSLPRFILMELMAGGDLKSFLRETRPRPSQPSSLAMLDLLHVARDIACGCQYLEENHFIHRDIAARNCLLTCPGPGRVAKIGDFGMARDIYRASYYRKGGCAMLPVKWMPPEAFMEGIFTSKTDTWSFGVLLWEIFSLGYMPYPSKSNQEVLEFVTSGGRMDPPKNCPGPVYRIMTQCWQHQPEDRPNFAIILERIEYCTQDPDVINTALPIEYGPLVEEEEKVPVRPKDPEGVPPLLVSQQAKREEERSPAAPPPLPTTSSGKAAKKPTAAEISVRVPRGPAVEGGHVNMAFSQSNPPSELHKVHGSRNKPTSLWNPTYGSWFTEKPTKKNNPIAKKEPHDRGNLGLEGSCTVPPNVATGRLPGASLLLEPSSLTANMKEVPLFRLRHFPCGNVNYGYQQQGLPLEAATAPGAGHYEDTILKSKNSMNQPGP

IC50 | SMILES
11.7 nM | CCN1CCN(C(=O)c2cccn2-c2ccc(Nc3ncc(Cl)c(Nc4ccccc4NS(C)(=O)=O)n3)c(OC)c2)CC1
13.4 nM | CNC(=O)c1ccccc1Nc1nc(Nc2ccc(-n3cccc3C(=O)NCCO)cc2OC)ncc1Cl
3.1 nM | COc1cc(-n2cccc2C(=O)NCCO)ccc1Nc1ncc(Cl)c(Nc2ccccc2NS(C)(=O)=O)n1
8.3 nM | COc1cc(-n2cccc2C(=O)N2CCSCC2)ccc1Nc1ncc(Cl)c(Nc2ccccc2NS(C)(=O)=O)n1

test system: NCI-H2228; assay: Antiproliferative activity against human H2228 cells assessed as reduction in cell viability incubated for 72 hrs by MTT assay; type: functional, cell-based; details: NCI-H2228, 72 h

IC50 | SMILES
87 nM | CCN(CC)C(=O)c1cccn1-c1ccc(Nc2ncc(Cl)c(Nc3ccccc3NS(C)(=O)=O)n2)c(OC)c1
1070 nM | CNC(=O)c1ccccc1Nc1nc(Nc2ccc(-n3cccc3C(=O)N3CCC(C)CC3)cc2OC)ncc1Cl
54 nM | COc1cc(-n2cccc2C(=O)N(C)C)ccc1Nc1ncc(Cl)c(Nc2ccccc2NS(C)(=O)=O)n1
600 nM | COc1cc(-n2cccc2C(=O)N2CCCC2)ccc1Nc1ncc(Cl)c(Nc2ccccc2NS(C)(=O)=O)n1
980 nM | CNC(=O)c1ccccc1Nc1nc(Nc2ccc(-n3cccc3C(=O)N3CCN(C)CC3)cc2OC)ncc1Cl
1050 nM | COc1cc(-n2cccc2C(=O)N2CCC(C)CC2)ccc1Nc1ncc(Cl)c(Nc2ccccc2NS(C)(=O)=O)n1
87 nM | CNC(=O)c1ccccc1Nc1nc(Nc2ccc(-n3cccc3C(=O)O)cc2OC)ncc1Cl
660 nM | COc1cc(-n2cccc2C(=O)N2CCC(O)CC2)ccc1Nc1ncc(Cl)c(Nc2ccccc2NS(C)(=O)=O)n1
1410 nM | CNC(=O)c1ccccc1Nc1nc(Nc2ccc(-n3cccc3C(=O)N3CCN(CCO)CC3)cc2OC)ncc1Cl
630 nM | COc1cc(-n2cccc2C(=O)N2CCCCC2)ccc1Nc1ncc(Cl)c(Nc2ccccc2NS(C)(=O)=O)n1
1130 nM | CCN1CCN(C(=O)c2cccn2-c2ccc(Nc3ncc(Cl)c(Nc4ccccc4NS(C)(=O)=O)n3)c(OC)c2)CC1
1040 nM | CNC(=O)c1ccccc1Nc1nc(Nc2ccc(-n3cccc3C(=O)N3CCSCC3)cc2OC)ncc1Cl
89 nM | CNC(=O)c1ccccc1Nc1nc(Nc2ccc(-n3cccc3C(=O)N(C)C)cc2OC)ncc1Cl
43 nM | CNC(=O)c1ccccc1Nc1nc(Nc2ccc(-n3cccc3C(=O)NCCO)cc2OC)ncc1Cl
970 nM | CNC(=O)c1ccccc1Nc1nc(Nc2ccc(-n3cccc3C(=O)OC)cc2OC)ncc1Cl
840 nM | CNC(=O)c1ccccc1Nc1nc(Nc2ccc(-n3cccc3C(=O)N3CCOCC3)cc2OC)ncc1Cl

IC50 | SMILES
1070 nM | CNC(=O)c1ccccc1Nc1nc(Nc2ccc(-n3cccc3C(=O)N3CCC(O)CC3)cc2OC)ncc1Cl
34 nM | COc1cc(-n2cccc2C(=O)NCCO)ccc1Nc1ncc(Cl)c(Nc2ccccc2NS(C)(=O)=O)n1
610 nM | COc1cc(-n2cccc2C(=O)N2CCOCC2)ccc1Nc1ncc(Cl)c(Nc2ccccc2NS(C)(=O)=O)n1
700 nM | COc1cc(-n2cccc2C(=O)N2CCSCC2)ccc1Nc1ncc(Cl)c(Nc2ccccc2NS(C)(=O)=O)n1
950 nM | COC(=O)c1cccn1-c1ccc(Nc2ncc(Cl)c(Nc3ccccc3NS(C)(=O)=O)n2)c(OC)c1
64 nM | COc1cc(-n2cccc2C(=O)O)ccc1Nc1ncc(Cl)c(Nc2ccccc2NS(C)(=O)=O)n1
540 nM | CCN(CC)C(=O)c1cccn1-c1ccc(Nc2ncc(Cl)c(Nc3ccccc3C(=O)NC)n2)c(OC)c1
1080 nM | COc1cc(-n2cccc2C(=O)N2CCN(CCO)CC2)ccc1Nc1ncc(Cl)c(Nc2ccccc2NS(C)(=O)=O)n1
990 nM | CNC(=O)c1ccccc1Nc1nc(Nc2ccc(-n3cccc3C(=O)N3CCCCC3)cc2OC)ncc1Cl
1050 nM | COc1cc(-n2cccc2C(=O)N2CCN(C)CC2)ccc1Nc1ncc(Cl)c(Nc2ccccc2NS(C)(=O)=O)n1
770 nM | CNC(=O)c1ccccc1Nc1nc(Nc2ccc(-n3cccc3C(=O)N3CCCC3)cc2OC)ncc1Cl
1270 nM | CCN1CCN(C(=O)c2cccn2-c2ccc(Nc3ncc(Cl)c(Nc4ccccc4C(=O)NC)n3)c(OC)c2)CC1
44 nM | COc1cc(-n2cccc2C(=O)N2CC(O)C2)ccc1Nc1ncc(Cl)c(Nc2ccccc2NS(C)(=O)=O)n1
44 nM | CNC(=O)c1ccccc1Nc1nc(Nc2ccc(-n3cccc3C(=O)N3CC(O)C3)cc2OC)ncc1Cl
1070 nM | Cc1cc(Nc2ncc(Cl)c(Nc3ccccc3S(=O)(=O)C(C)C)n2)c(OC(C)C)cc1C1CCNCC1 [CERITINIB]

test system: A549; assay: Antiproliferative activity against human A549 cells assessed as reduction in cell viability incubated for 72 hr by MTT assay; details: A549, 72 h

IC50 | SMILES
970 nM | CCN(CC)C(=O)c1cccn1-c1ccc(Nc2ncc(Cl)c(Nc3ccccc3NS(C)(=O)=O)n2)c(OC)c1
> 10000 nM | CNC(=O)c1ccccc1Nc1nc(Nc2ccc(-n3cccc3C(=O)N3CCC(C)CC3)cc2OC)ncc1Cl
> 10000 nM | COc1cc(-n2cccc2C(=O)N(C)C)ccc1Nc1ncc(Cl)c(Nc2ccccc2NS(C)(=O)=O)n1
4580 nM | COc1cc(-n2cccc2C(=O)N2CCCC2)ccc1Nc1ncc(Cl)c(Nc2ccccc2NS(C)(=O)=O)n1
> 10000 nM | CNC(=O)c1ccccc1Nc1nc(Nc2ccc(-n3cccc3C(=O)N3CCN(C)CC3)cc2OC)ncc1Cl
2200 nM | COc1cc(-n2cccc2C(=O)N2CCC(C)CC2)ccc1Nc1ncc(Cl)c(Nc2ccccc2NS(C)(=O)=O)n1
2490 nM | CNC(=O)c1ccccc1Nc1nc(Nc2ccc(-n3cccc3C(=O)O)cc2OC)ncc1Cl
> 10000 nM | COc1cc(-n2cccc2C(=O)N2CCC(O)CC2)ccc1Nc1ncc(Cl)c(Nc2ccccc2NS(C)(=O)=O)n1
> 10000 nM | CNC(=O)c1ccccc1Nc1nc(Nc2ccc(-n3cccc3C(=O)N3CCN(CCO)CC3)cc2OC)ncc1Cl
> 10000 nM | COc1cc(-n2cccc2C(=O)N2CCCCC2)ccc1Nc1ncc(Cl)c(Nc2ccccc2NS(C)(=O)=O)n1
> 10000 nM | CCN1CCN(C(=O)c2cccn2-c2ccc(Nc3ncc(Cl)c(Nc4ccccc4NS(C)(=O)=O)n3)c(OC)c2)CC1
2180 nM | CNC(=O)c1ccccc1Nc1nc(Nc2ccc(-n3cccc3C(=O)N3CCSCC3)cc2OC)ncc1Cl
4120 nM | CNC(=O)c1ccccc1Nc1nc(Nc2ccc(-n3cccc3C(=O)N(C)C)cc2OC)ncc1Cl
> 10000 nM | CNC(=O)c1ccccc1Nc1nc(Nc2ccc(-n3cccc3C(=O)NCCO)cc2OC)ncc1Cl
8510 nM | CNC(=O)c1ccccc1Nc1nc(Nc2ccc(-n3cccc3C(=O)OC)cc2OC)ncc1Cl
2210 nM | CNC(=O)c1ccccc1Nc1nc(Nc2ccc(-n3cccc3C(=O)N3CCOCC3)cc2OC)ncc1Cl
> 10000 nM | CNC(=O)c1ccccc1Nc1nc(Nc2ccc(-n3cccc3C(=O)N3CCC(O)CC3)cc2OC)ncc1Cl
> 10000 nM | COc1cc(-n2cccc2C(=O)NCCO)ccc1Nc1ncc(Cl)c(Nc2ccccc2NS(C)(=O)=O)n1
1770 nM | COc1cc(-n2cccc2C(=O)N2CCOCC2)ccc1Nc1ncc(Cl)c(Nc2ccccc2NS(C)(=O)=O)n1
1470 nM | COc1cc(-n2cccc2C(=O)N2CCSCC2)ccc1Nc1ncc(Cl)c(Nc2ccccc2NS(C)(=O)=O)n1
2510 nM | COC(=O)c1cccn1-c1ccc(Nc2ncc(Cl)c(Nc3ccccc3NS(C)(=O)=O)n2)c(OC)c1
1060 nM | COc1cc(-n2cccc2C(=O)O)ccc1Nc1ncc(Cl)c(Nc2ccccc2NS(C)(=O)=O)n1
3490 nM | CCN(CC)C(=O)c1cccn1-c1ccc(Nc2ncc(Cl)c(Nc3ccccc3C(=O)NC)n2)c(OC)c1
> 10000 nM | COc1cc(-n2cccc2C(=O)N2CCN(CCO)CC2)ccc1Nc1ncc(Cl)c(Nc2ccccc2NS(C)(=O)=O)n1
> 10000 nM | CNC(=O)c1ccccc1Nc1nc(Nc2ccc(-n3cccc3C(=O)N3CCCCC3)cc2OC)ncc1Cl
> 10000 nM | COc1cc(-n2cccc2C(=O)N2CCN(C)CC2)ccc1Nc1ncc(Cl)c(Nc2ccccc2NS(C)(=O)=O)n1
> 10000 nM | CNC(=O)c1ccccc1Nc1nc(Nc2ccc(-n3cccc3C(=O)N3CCCC3)cc2OC)ncc1Cl
1570 nM | CCN1CCN(C(=O)c2cccn2-c2ccc(Nc3ncc(Cl)c(Nc4ccccc4C(=O)NC)n3)c(OC)c2)CC1
2080 nM | COc1cc(-n2cccc2C(=O)N2CC(O)C2)ccc1Nc1ncc(Cl)c(Nc2ccccc2NS(C)(=O)=O)n1
4130 nM | CNC(=O)c1ccccc1Nc1nc(Nc2ccc(-n3cccc3C(=O)N3CC(O)C3)cc2OC)ncc1Cl
